A short description of data set [1]: phase 1 clinical trial, bioavailability and pharmacokinetics of the oral dosage form versus IV Zometa. The data set is classed as in vivo, human. Here is the method:
Dose amounts are based upon the weights of the molar equivalent amounts of the diacid form of zoledronic acid (e.g., the 50 mg oral dose contains about 71 mg of the disodium zoledronate tetrahydrate form). The dosage form had the composition shown in Table 3, and was coated with Opadry White, which as 3-5 wt % of the coated tablet. These dosage forms were free of bioavailability enhancing agents. For convenience, the dosage form described in Table 3 will be described in this Example as “the oral dosage form.”
Each subject received 2 of the following 4 treatments: one unit of the oral dosage form for a 50 mg dose (“the 50 mg oral dose”), two units of the oral dosage form taken together for a 100 mg dose (“the 100 mg oral dose”), or three units of the oral dosage form taken together for a 150 mg dose (“the 150 mg oral dose”), or a 1 mg IV dose of zoledronic acid (Zometa®). Each treatment was separated by a wash-out period of approximately 14 days. Blood samples were collected for 72 hours post-dose to characterize zoledronic acid pharmacokinetics. Blood samples were collected pre-dose and 7 and 14-15 days post-dose to measure the effects of the oral disodium tetrahydrate form of zoledronic acid and IV zoledronic acid on biomarkers of bone resorption.
All study medications which were orally administered were given with approximately 240 mL of water. Subjects remained upright for the first hour following study medication administration. Zoledronic acid IV infusion was at least 15 minutes in duration. All study medication was administered under fasting conditions.
Each treatment was separated by a washout period of approximately 14 days. Blood samples were collected for 72 hours post-dose to characterize zoledronic acid pharmacokinetics. Blood samples were collected pre-dose and 7 and 14-15 days post-dose to measure the effects of the oral dosage form and IV zoledronic acid on serum CTx.

The subject of data set [2] is arthritis pain (mechanical hyperalgesia). Nature of the data set: rat complete Freund's adjuvant (CFA) model of arthritis pain. It counts as in vivo. The note with it: oral administration; day 14 post CFA. Here is the method:
The effect of orally administered zoledronic acid on arthritis pain was examined in the rat complete Freund's adjuvant (CFA) model of arthritis pain. In this model, injection of 100% complete Freund's adjuvant (CFA) in a 75 μL volume into the left hind paws is followed by a 10-14 day period to allow for the development of arthritis pain. Animals were orally administered vehicle (control), zoledronic acid 54 mg/m^2 (or 9 mg/kg), or zoledronic acid 360 mg/m^2 (or 60 mg/kg), divided in three equal daily doses on the first three days post CFA injection. Drug was dissolved in distilled water and prepared fresh daily. Animals were fasted prior to dosing.
Arthritis pain (mechanical hyperalgesia) in the vehicle and drug-treated animals was evaluated on day 14 post CFA injection using a digital Randall-Selitto device (dRS; IITC Life Sciences, Woodland Hills, CA). Animals were placed in a restraint sling that suspended the animal, leaving the hind limbs available for testing. Paw compression threshold was measured by applying increasing pressure to the plantar surface of the hind paw with a dome-shaped tip placed between the 3rd and 4th metatarsus. Pressure was applied gradually over approximately 10 seconds. […]
Reversal of arthritis pain in the ipsilateral (CFA-injected) paw was calculated according to the formula: […]

As to `O=P(O)(O)C(O)(Cn1ccnc1)P(=O)(O)O` [zoledronic acid], the “Sustained Plasma Factor” value in data set [1] (1 mg IV) came to 4.6; in data set [1] (50 mg oral dose) it was 13.5; in data set [1] (100 mg oral dose), 11.7; in data set [1] (150 mg oral dose) it was 15.1. Moreover, the “Sustained Plasma Factor Ratio (oral/IV)” value in data set [1] (50 mg oral dose versus 1 mg IV) is given as 2.9; in data set [1] (100 mg oral dose versus 1 mg IV) it was 2.5; in data set [1] (150 mg oral dose versus 1 mg IV) it was 3.3. For the same compound, in data set [2], the “arthritis pain thresholds compared to vehicle” value was “significantly improved”.

Values taken from patent US20240108641A1, “COMPOSITIONS FOR ORAL ADMINISTRATION OF ZOLEDRONIC ACID OR RELATED COMPOUNDS FOR TREATING DISEASE” (ANTECIP BIOVENTURES II LLC, priority 2012, published 2024).
